Results taken from US8901072B2, “Glycopeptide and lipoglycopeptide antibiotics with improved solubility” (The Medicines Company, priority 2009, dated 2014).
Values after ≈ are worked out from the molar mass of the structure shown. Values joined by “and” are separate entries in the source; they are usually repeats but may differ in a detail not shown here. Equal entries are not always repeated. Where two headings read alike, the source gives them in different places.

Key:
S. aureus ATCC 13709 = experiment: In vitro antibacterial susceptibility (MIC, broth microdilution); type: cell-based; details: for MIC against S. aureus ATCC 13709, CAMHB: cation-adjusted Mueller-Hinton broth, 37° C., 18 h; for Antibacterial activity compared with oritavancin 5: deduced from the MIC data of Table 2; for MIC: Staphylococcus aureus
Experimental: Susceptibility of S. aureus strain ATCC13709 to oritavancin (5) and synthesized compounds was determined following the guidelines set by the Clinical and Laboratory Standards Institute (formerly the National Committee for Clinical Laboratory Standards) (M26-A). Compounds were serially diluted two-fold in either DMSO (Oritavancin 5) or in PBS and transferred to cation-adjusted Mueller Hinton broth (CAMHB; Becton Dickinson). 50 μL of compounds diluted in CAMHB was mixed with 100 μL of bacteria diluted in CAMHB in 96-well microtiter plates. The final number of micro-organisms in the assay was 5×10^5 c.f.u. per mL and the final concentration of DMSO in the assay, if present, was 1.25%. All solutions may contain 0.002% Tween as indicated. Assays were set up in duplicate and incubated at 37° C. for 18 h. The concentration of compound that inhibited visible growth was reported as the minimum inhibitory concentration (MIC).

[1] = system: S. aureus strain ATCC13709; experiment: Neutropenic mouse thigh infection model; type: in vivo, mice; details: for In vivo antibacterial efficacy compared with oritavancin: deduced from the data of Table 3; for Recovered bacterial titers per thigh, 1 mg/kg / Recovered bacterial titers per thigh, 10 mg/kg / Recovered bacterial titers per thigh, 40 mg/kg: neutropenic mice, 24 h postinfection; for Recovered bacterial titers per thigh, 1 mg/kg: 1 mg/kg one hour after inoculation; for Recovered bacterial titers per thigh, 10 mg/kg: 10 mg/kg one hour after inoculation; for Recovered bacterial titers per thigh, 40 mg/kg: 40 mg/kg one hour after inoculation
Experimental: The susceptibility of S. aureus strain ATCC13709 to oritavancin (5) and selected synthesized compounds in vivo was evaluated with the well accepted neutropenic mouse thigh infection model (Craig, W. A. et al. Journal of Antimicrobial Chemotherapy (1991), 27 (Suppl. C):29-40). Mice were made neutropenic by treatment with cyclophosphamide (150 and 100 mg/kg of body weight administered intraperitoneally 4 days and 1 day prior to infection). Mice were anesthetized briefly with approximately 4% isoflurane just prior to inoculation. The bacterial suspension (0.1 mL) was injected intramuscularly into each thigh (approximately 10^5 colony forming units (CFU)/thigh). The selected agents were administered in 10% (w/w) β-hydroxypropylcyclodextrin in water at a concentration of 10 mg/mL one hour following bacterial inoculation. The animals were humanely sacrificed by CO2 asphyxiation 24 h postinfection. The entire thigh muscle mass including the bone was homogenized and diluted in 0.9% saline and aliquots were plated on Brain-Heart Infusion agar. Following overnight incubation at 37° C., bacteria were enumerated for each thigh and expressed as log10 CFU per thigh. This was performed over three independent experiments and oritavancin (5) was used as a comparator in each.

[2] = Solubility in phosphate buffered saline; type: physicochemical; details: 10 mM phosphate buffered saline (0.138 M NaCl, 2.7 mM KCl), pH 7.4
Experimental: To a sample of the material of known mass were added known volumes of phosphate buffered saline until complete dissolution is observed. Suspensions were centrifuged for 5 min at 10000 rpm. […] Upon complete dissolution, the solution is diluted until the final concentration is 0.5 mg/mL to ensure that the material remains soluble over the entire range of concentrations.

SMILES | MIC against S. aureus ATCC 13709, CAMHB + 0.002% tween (S. aureus ATCC 13709) [µg/mL] | MIC against S. aureus ATCC 13709, CAMHB + 50% human serum (S. aureus ATCC 13709) [µg/mL] | MIC against S. aureus ATCC 13709, CAMHB + 50% mouse serum (S. aureus ATCC 13709) [µg/mL] | MIC against S. aureus ATCC 13709, CAMHB (S. aureus ATCC 13709) [µg/mL] | Antibacterial activity compared with oritavancin 5 (S. aureus ATCC 13709) | In vivo antibacterial efficacy compared with oritavancin [1] | Recovered bacterial titers per thigh, 1 mg/kg [1] [Log10 CFU/thigh] | Recovered bacterial titers per thigh, 10 mg/kg [1] [Log10 CFU/thigh] | Recovered bacterial titers per thigh, 40 mg/kg [1] [Log10 CFU/thigh] | Solubility (mg/mL) PBS [2] | MIC against S. aureus ATCC 13709, CAMHB + 50% rat serum (S. aureus ATCC 13709; CAMHB + 50% rat serum) [µg/mL] | MIC (S. aureus ATCC 13709; ATCC13709, 18 h, read-out: MIC against S. aureus ATCC 13709, CAMHB) [µg/mL] | MIC (S. aureus ATCC 13709; ATCC13709, read-out: MIC against S. aureus ATCC 13709, CAMHB + 0.002% tween) [µg/mL] | MIC (S. aureus ATCC 13709; ATCC13709, read-out: MIC against S. aureus ATCC 13709, CAMHB + 50% human serum) [µg/mL] | MIC (S. aureus ATCC 13709; ATCC13709, read-out: MIC against S. aureus ATCC 13709, CAMHB + 50% mouse serum) [µg/mL] | MIC (S. aureus ATCC 13709; ATCC13709, read-out: MIC against S. aureus ATCC 13709, CAMHB + 50% rat serum) [µg/mL] | Recovered bacterial titers per thigh, 1 mg/kg ([1]; 1 mg/kg) | Recovered bacterial titers per thigh, 10 mg/kg ([1]; 10 mg/kg) | Recovered bacterial titers per thigh, 40 mg/kg ([1]; 40 mg/kg) | solubility ([2]; aqueous buffer, thermodynamic from solid, read-out: Solubility (mg/mL) PBS) [mg/mL]
CNC(CC(C)C)C(=O)NC1C(=O)NC(CC(N)=O)C(=O)NC2C(=O)NC3C(=O)NC(C(=O)NC(C(=O)SCC(=O)NCCCN)c4cc(O)cc(O)c4-c4cc3ccc4O)C(OC3CC(C)(N)C(O)C(C)O3)c3ccc(c(Cl)c3)Oc3cc2cc(c3OC2OC(CO)C(O)C(O)C2OC2CC(C)(NCc3ccc(-c4ccc(Cl)cc4)cc3)C(O)C(C)O2)Oc2ccc(cc2Cl)C1O (stereo not shown) [Compound 93] | 0.125 | 0.25 | 1 | 0.5 (≈ 0.26 µM) | within an order of magnitude of that of oritavancin 5 | within the same order of magnitude than oritavancin itself | 8.53 ± 0.49 | 4.45 ± 1.68 | 4.18 ± 1.70 | ≧100 mg/mL | – | – | – | – | – | – | – | – | – | –
CNC(CC(C)C)C(=O)NC1C(=O)NC(CC(N)=O)C(=O)NC2C(=O)NC3C(=O)NC(C(=O)NC(C(=O)OCC[N+](C)(C)C)c4cc(O)cc(O)c4-c4cc3ccc4O)C(OC3CC(C)(N)C(O)C(C)O3)c3ccc(c(Cl)c3)Oc3cc2cc(c3OC2OC(CO)C(O)C(O)C2OC2CC(C)(NCc3ccc(-c4ccc(Cl)cc4)cc3)C(O)C(C)O2)Oc2ccc(cc2Cl)C1O (stereo not shown) [Compound 95] | 0.25 | 0.5 | 2 | 1 | within an order of magnitude of that of oritavancin 5 | within the same order of magnitude than oritavancin itself | 8.32 ± 0.17 | 3.95 ± 1.57 | 2.96 ± 0.96 | ≧100 mg/mL | 0.125 | – | – | – | – | – | – | – | – | –
CN[C@H](CC(C)C)C(=O)N[C@H]1C(=O)N[C@@H](CC(N)=O)C(=O)N[C@H]2C(=O)N[C@H]3C(=O)N[C@H](C(=O)N[C@H](C(=O)O)c4cc(O)cc(O)c4-c4cc3ccc4O)[C@H](O[C@H]3C[C@](C)(N)[C@@H](O)[C@H](C)O3)c3ccc(c(Cl)c3)Oc3cc2cc(c3O[C@@H]2O[C@H](CO)[C@@H](O)[C@H](O)[C@H]2O[C@H]2C[C@](C)(NCc3ccc(-c4ccc(Cl)cc4)cc3)[C@@H](O)[C@H](C)O2)Oc2ccc(cc2Cl)[C@H]1O [Oritavancin (5), oritavancin, reference compound] | – | – | – | – | – | – | – | – | – | <0.1 mg/mL | – | 1 (≈ 0.558 µM) | 0.125 | 0.125 | 0.25 | 0.25 | 8.16 ± 0.38 Log10 CFU/thigh and 7.96 ± 0.93 Log10 CFU/thigh and 7.98 ± 0.11 Log10 CFU/thigh | 5.19 ± 1.86 Log10 CFU/thigh and 3.81 ± 1.16 Log10 CFU/thigh and 3.03 ± 0.53 Log10 CFU/thigh | 2.62 ± 0.18 Log10 CFU/thigh and 2.62 ± 0.51 Log10 CFU/thigh and 2.29 ± 0.70 Log10 CFU/thigh | < 0.1
